# ChEMBL document CHEMBL1201862, “PubChem BioAssay data set” (2004)
# Activity calls are given as the source filed them.
# Legend:
# [1] = target: T1, Carboxy-terminal domain RNA polymerase II polypeptide A small phosphatase 1 (Homo sapiens, UniProt Q9GZU7); test: CTDSP1 inhibitors, concentration-response, biochemical, absorbance readout, ultra-high-throughput screen actives (AID 540297); assay type: functional
# T1 sequence (Q9GZU7 whole entry): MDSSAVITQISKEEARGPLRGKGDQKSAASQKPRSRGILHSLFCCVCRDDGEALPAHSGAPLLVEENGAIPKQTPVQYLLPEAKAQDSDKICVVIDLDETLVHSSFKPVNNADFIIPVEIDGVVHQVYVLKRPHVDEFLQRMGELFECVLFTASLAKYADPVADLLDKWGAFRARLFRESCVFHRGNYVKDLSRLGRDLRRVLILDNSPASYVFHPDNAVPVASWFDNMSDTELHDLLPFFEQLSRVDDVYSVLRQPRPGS
# Fatty acid synthase [2] = target: T2, Fatty acid synthase (Homo sapiens, UniProt P49327); test: inhibition of human FAS-TE enzyme activity – biochemical, endpoint fluorescence intensity, uHTS hits, dose response (AID 624327); assay type: functional;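 also: fluorescence from hydrolysis of an O-methyl fluorescein acyl ester substrate by the enzyme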
# T2 sequence (P49327 whole entry): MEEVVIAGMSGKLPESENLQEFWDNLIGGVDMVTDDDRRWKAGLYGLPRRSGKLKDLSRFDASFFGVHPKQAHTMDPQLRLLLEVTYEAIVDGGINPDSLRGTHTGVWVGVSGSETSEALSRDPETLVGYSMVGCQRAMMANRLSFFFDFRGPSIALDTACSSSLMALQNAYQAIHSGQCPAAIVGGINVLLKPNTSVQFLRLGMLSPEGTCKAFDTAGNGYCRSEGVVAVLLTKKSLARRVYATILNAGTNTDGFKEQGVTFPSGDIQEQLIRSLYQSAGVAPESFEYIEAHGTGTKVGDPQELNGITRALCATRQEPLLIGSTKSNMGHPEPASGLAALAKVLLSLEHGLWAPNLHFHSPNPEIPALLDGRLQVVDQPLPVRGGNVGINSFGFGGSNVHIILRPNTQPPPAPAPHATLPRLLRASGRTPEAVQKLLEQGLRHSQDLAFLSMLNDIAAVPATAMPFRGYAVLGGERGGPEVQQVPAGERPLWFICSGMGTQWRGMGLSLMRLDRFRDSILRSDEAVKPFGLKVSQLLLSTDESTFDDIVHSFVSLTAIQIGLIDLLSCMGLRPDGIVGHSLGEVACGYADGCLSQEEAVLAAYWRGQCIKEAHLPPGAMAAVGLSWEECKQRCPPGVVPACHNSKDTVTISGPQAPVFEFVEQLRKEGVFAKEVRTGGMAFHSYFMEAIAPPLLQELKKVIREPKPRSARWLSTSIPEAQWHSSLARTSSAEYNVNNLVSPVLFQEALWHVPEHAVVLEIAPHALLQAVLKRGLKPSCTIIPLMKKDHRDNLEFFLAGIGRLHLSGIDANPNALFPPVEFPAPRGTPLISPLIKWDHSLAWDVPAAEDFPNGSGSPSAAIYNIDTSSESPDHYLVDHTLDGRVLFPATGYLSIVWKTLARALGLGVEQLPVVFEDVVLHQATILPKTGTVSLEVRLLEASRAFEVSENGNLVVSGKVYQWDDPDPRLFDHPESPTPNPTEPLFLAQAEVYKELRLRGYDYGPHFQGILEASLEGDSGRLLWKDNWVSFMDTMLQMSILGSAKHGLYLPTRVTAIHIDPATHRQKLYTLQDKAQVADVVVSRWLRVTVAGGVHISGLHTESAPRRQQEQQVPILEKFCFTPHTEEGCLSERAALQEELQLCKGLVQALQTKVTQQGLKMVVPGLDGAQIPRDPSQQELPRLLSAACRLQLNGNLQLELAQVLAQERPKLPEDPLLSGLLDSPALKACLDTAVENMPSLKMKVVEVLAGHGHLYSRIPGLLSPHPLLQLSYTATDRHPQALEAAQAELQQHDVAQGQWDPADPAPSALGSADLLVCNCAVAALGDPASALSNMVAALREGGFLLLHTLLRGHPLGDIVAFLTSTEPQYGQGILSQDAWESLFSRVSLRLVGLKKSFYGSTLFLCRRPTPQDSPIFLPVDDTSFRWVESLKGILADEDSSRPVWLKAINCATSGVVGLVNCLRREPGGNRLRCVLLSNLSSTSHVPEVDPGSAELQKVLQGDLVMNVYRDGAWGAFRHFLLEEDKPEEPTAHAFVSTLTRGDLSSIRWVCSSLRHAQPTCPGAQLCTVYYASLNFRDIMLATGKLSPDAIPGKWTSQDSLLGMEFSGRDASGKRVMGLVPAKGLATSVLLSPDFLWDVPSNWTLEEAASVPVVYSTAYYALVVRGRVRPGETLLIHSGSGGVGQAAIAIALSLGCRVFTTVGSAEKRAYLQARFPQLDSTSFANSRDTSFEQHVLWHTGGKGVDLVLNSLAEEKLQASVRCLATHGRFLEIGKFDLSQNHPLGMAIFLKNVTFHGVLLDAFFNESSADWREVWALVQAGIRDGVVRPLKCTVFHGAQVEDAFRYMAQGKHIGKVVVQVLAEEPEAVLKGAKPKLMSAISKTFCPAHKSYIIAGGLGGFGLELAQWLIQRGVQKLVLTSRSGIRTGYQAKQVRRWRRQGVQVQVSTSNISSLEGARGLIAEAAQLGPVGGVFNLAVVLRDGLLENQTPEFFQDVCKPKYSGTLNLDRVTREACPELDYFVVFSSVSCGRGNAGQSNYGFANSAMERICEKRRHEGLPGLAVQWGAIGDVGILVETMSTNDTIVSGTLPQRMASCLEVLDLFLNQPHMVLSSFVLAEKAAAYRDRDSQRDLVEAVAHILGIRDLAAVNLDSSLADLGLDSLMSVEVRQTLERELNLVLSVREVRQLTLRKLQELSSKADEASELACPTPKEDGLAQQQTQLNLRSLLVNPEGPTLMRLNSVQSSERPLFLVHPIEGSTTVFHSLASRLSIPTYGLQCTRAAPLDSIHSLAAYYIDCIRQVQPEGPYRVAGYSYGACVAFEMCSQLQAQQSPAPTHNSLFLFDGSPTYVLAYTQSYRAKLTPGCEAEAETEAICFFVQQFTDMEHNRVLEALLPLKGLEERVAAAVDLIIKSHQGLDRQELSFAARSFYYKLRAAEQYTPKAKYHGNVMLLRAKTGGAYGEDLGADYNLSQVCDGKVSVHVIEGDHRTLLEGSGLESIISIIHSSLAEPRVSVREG
# Fatty acid synthase [3] = target: T2, Fatty acid synthase; test: inhibition of human FAS-TE enzyme activity – biochemical, kinetic fluorescence intensity, dose response (AID 624326); assay type: functional;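 also: rate of fluorescence rise from hydrolysis of a fluorogenic O-methyl fluorescein ester substrate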
# cells = assay type: functional
# [4] = NIH-3T3 fibroblast cytotoxicity, dose response, cytotoxicity control, cell-based, fluorescence, Alamar Blue, secondary assay (AID 2327); assay type: functional;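 also: NIH-3T3 mouse fibroblasts cultured with fluconazole at 8 µg/mL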
# [5] = fluconazole-exposed Candida albicans growth modulators – fluorescence, retest, confirmation (AID 2467); assay type: functional, cell-based
# [6] = target: T3, Sentrin-specific protease 8 (Homo sapiens, UniProt Q96LD8); assay type: functional
# T3 sequence (Q96LD8 whole entry): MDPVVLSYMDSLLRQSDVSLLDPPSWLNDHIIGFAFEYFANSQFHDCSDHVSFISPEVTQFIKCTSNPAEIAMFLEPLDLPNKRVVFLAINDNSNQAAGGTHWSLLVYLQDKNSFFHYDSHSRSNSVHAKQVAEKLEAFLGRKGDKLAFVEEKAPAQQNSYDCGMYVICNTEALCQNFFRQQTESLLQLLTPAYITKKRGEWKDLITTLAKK
# [7] = target: T3, Sentrin-specific protease 8; assay type: functional; remark: listed apart in the source
# [8] = blockers of bursicon-stimulated LGR2 cAMP reporter – cell-based, HEK293, CRE-luciferase reporter, cherry pick, set 2, dose response (AID 743343); assay type: functional;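 also: transfected cells were stimulated with diluted bursicon conditioned medium after compound addition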
# [9] = blockade of melanocortin 4 receptor signaling – cell-based, plate reader, cherry pick, counter-screen for LGR2 antagonist project, dose response (AID 743444); assay type: functional;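 also: transfected HEK 293 cells stimulated with alpha-MSH peptide; potency of inhibitors of the alpha-MSH evoked signal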
# [10] = A549 cell cytotoxicity, dose response, cytotoxicity control, plate reader, cherry-pick, antagonist series (AID 743412); assay type: functional, cell-based
# [11] = viability loss in HEK293 cells – cell-based, plate reader, cherry-picked samples, cytotoxicity control, dose response (AID 743446); assay type: functional
# Cytochrome P450 2C19 = Cytochrome P450 2C19 (Homo sapiens, UniProt P33261); test: Cytochrome panel assay with activity outcomes. Panel member name: p450-cyp2c19 Compounds with AC50 equal or less than 10 uM are considered active; assay type: functional
# Chain of Cytochrome P450 2C19 (P33261 whole entry): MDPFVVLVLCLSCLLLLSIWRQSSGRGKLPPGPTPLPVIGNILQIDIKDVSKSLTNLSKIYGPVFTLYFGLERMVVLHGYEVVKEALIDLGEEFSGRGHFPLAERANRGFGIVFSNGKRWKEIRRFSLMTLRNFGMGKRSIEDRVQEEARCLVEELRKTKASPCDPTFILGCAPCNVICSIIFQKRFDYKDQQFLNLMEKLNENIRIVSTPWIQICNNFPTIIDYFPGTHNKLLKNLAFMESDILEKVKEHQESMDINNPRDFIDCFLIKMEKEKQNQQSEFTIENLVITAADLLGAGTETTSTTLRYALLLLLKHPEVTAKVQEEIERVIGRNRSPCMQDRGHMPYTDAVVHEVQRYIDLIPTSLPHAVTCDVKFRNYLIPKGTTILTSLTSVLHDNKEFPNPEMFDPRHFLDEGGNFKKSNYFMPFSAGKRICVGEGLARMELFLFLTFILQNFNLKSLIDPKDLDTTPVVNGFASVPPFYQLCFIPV
# Cytochrome P450 2C9 = Cytochrome P450 2C9 (Homo sapiens, UniProt P11712)
# Chain of Cytochrome P450 2C9 (P11712 whole entry): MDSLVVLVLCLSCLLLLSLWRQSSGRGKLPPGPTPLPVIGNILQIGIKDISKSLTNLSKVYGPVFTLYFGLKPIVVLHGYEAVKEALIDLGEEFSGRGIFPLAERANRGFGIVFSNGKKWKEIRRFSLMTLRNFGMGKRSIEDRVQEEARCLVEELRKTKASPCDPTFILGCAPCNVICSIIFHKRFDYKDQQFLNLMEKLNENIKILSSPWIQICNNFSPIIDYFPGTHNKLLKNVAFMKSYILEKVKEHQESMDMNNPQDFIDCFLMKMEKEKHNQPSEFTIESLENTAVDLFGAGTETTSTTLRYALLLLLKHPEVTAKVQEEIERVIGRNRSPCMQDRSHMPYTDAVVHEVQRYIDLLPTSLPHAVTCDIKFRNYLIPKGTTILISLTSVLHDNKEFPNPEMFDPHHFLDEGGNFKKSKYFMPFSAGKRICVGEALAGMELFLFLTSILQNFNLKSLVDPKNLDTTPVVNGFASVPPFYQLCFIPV
# Cytochrome P450 1A2 = target: T4, Cytochrome P450 1A2 (Homo sapiens, UniProt P05177);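 also: PubChem cytochrome P450 panel assay, CYP1A2 panel member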
# T4 sequence (P05177 whole entry): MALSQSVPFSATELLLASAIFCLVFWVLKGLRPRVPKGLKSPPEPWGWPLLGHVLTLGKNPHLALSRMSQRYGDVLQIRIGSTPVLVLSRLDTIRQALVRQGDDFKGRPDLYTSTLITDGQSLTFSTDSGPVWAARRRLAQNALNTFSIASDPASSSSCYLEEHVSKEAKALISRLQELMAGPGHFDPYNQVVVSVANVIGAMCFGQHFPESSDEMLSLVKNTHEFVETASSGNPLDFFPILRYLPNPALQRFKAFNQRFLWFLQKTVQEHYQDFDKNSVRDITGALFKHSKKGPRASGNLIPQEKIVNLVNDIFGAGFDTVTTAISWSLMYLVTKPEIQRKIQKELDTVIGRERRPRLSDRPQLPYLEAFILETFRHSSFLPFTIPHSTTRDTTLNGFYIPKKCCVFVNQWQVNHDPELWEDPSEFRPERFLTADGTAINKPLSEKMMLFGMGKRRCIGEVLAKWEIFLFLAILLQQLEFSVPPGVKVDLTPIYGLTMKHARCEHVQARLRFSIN
# Cytochrome P450 2D6 = Cytochrome P450 2D6 (Homo sapiens, UniProt P10635);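 also: CYP2D6 member of a cytochrome P450 panel assay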
# [12] = target: G-protein coupled receptor 55 (Homo sapiens, UniProt Q9Y2T6); test: inhibition of LPI-stimulated GPR55 beta-arrestin translocation – imaging, U2OS, beta-arrestin-GFP, LPI agonist, primary screen (AID 2013); assay type: functional;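 also: antagonist potency measured as reduced agonist-driven arrestin aggregation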
# Chain of G-protein coupled receptor 55 (Q9Y2T6 whole entry): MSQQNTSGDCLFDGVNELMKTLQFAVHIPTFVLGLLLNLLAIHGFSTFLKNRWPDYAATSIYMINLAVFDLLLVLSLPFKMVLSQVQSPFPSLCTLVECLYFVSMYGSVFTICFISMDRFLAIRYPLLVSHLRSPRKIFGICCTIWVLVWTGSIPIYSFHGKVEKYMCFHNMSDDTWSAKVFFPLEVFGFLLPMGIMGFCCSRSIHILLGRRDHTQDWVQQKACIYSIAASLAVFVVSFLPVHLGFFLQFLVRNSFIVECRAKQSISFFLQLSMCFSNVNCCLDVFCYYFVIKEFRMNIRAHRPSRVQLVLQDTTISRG
# Cytochrome P450 3A4 = Cytochrome P450 3A4 (Homo sapiens, UniProt P08684);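 also: CYP3A4 tested as one member of a cytochrome P450 panel screen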
# Chain of Cytochrome P450 3A4 (P08684 whole entry, the tested form may be a part): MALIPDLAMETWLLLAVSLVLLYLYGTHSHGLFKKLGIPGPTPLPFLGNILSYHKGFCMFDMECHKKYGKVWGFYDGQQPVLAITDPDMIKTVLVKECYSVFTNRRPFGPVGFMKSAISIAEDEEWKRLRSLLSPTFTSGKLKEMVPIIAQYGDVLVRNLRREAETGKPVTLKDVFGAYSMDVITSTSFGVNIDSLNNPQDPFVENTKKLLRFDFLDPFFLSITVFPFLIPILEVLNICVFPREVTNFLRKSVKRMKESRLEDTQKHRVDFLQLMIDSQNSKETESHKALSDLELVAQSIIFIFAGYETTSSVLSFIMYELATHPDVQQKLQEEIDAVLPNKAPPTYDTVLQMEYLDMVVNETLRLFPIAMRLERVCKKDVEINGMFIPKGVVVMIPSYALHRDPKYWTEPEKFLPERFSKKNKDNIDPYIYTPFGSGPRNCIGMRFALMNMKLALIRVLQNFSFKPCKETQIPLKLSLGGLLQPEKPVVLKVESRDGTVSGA
# [13] = target: T5, Polyadenylate-binding protein 1 (Homo sapiens, UniProt P11940); test: MLLE domain peptide-binding blockers, IC50 – biochemical, fluorescence polarization, FITC-PAM2 peptide, dose response (AID 602259); assay type: functional; conditions: read-out: IC50_Mean
# T5 sequence (P11940 whole entry, the tested form may be a part): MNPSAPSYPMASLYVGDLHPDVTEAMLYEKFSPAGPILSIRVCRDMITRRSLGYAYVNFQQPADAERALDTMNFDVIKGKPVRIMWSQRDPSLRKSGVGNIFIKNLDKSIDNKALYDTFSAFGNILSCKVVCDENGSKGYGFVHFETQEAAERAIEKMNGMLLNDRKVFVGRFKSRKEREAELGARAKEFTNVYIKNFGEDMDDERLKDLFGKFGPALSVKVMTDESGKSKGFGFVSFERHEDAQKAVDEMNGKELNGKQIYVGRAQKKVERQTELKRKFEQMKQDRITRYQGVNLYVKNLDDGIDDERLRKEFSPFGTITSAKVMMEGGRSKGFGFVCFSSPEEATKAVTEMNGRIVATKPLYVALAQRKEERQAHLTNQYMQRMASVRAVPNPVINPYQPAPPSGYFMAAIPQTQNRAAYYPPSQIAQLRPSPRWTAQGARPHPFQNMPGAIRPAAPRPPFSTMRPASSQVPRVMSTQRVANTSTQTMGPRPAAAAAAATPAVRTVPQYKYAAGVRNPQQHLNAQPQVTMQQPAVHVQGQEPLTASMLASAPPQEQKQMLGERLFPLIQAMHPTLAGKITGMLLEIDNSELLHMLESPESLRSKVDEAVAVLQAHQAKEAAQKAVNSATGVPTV
# [14] = target: T5, Polyadenylate-binding protein 1; test: MLLE binding blockers, Cy5 peptide tracer – biochemical, fluorescence polarization, Cy5-PAM2 peptide, secondary, miRNA deadenylation inhibitor project, dose response (AID 602260); assay type: functional; conditions: read-out: IC50_Mean
# [15] = HIV-1 AD8 envelope cell-cell fusion blockers – cherry-pick, dose response (AID 652062); assay type: functional, cell-based;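 also: luciferase signal from cell-cell fusion driven by HIV-1 clade B AD8 Env; potency is for inhibitors of fusion seen as a drop in luminescence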
# [16] = blockers of HIV-1 envelope-mediated cell-cell fusion – cherry-pick, dose response (AID 652057); assay type: functional, cell-based
# [17] = blockers of HIV-1 ZM109 envelope-driven cell-cell fusion – HeLa effector, CEM target cells, luciferase, cherry-pick, dose response (AID 652058); assay type: functional, cell-based;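 also: luciferase signal from HIV-1 Env mediated cell-cell fusion of effector and target cells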
# [18] = growth inhibition of PfATP4-mutant resistant parasites – NITD609-resistant line, SYBR Green, dry powder, dose response (AID 1159571); assay type: functional, cell-based;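 also: parasites synchronized at ring stage by sorbitol before testing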
# [19] = P. falciparum Dd2 growth inhibitors, dose response, SYBR Green, cherry-picked samples (AID 1159567); assay type: functional, cell-based
# [20] = Dd2 malaria parasite growth inhibition potency – SYBR Green, dry powder samples, dose response (AID 1159566); assay type: functional, cell-based;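 also: potency for growth inhibition with lower SYBR green DNA signal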
# [21] = growth inhibition of yeast DHODH-expressing 3D7 parasites – SYBR Green, dry powder samples, dose response (AID 1159570); assay type: functional, cell-based;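 also: parasite growth measured after 72 hours of compound exposure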
# [22] = HEK-293T viability loss after treatment – luminescence, T-cell screen hits, cytotoxicity control for TCR NF-kB inhibitor project, dose response (AID 489026); assay type: functional, cell-based;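 also: cells exposed to compound about 14 hours before the viability readout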
# SN12K1 = test: cells; assay type: functional; conditions: Homo sapiens
# P388/ADR = test: cells; assay type: functional; conditions: Mus musculus
# [23] = target: T6, Ubiquitin-conjugating enzyme E2 N (Homo sapiens, UniProt P61088); assay type: functional;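 also: Dose-response confirmation in a TR-FRET assay detecting UBC13-driven polyubiquitin chain formation, inhibition measured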
# T6 sequence (P61088 whole entry): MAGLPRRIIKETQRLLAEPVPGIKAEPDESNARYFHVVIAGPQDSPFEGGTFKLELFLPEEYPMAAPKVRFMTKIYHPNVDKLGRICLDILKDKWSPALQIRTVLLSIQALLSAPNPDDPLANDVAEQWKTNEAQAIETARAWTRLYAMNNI
smiles,measurement,setting,value
CCOc1ccccc1NC(=O)Cn1cnc2c(nnn2-c2cccc(OC)c2)c1=O,IC50,[1],10.1 µM (active)
Cc1nc2scc(-c3ccc(Cl)cc3)c2c(=O)o1,IC50,Fatty acid synthase [2],1.32 µM (active)
same,IC50,Fatty acid synthase [3],2.91 µM (active)
COc1ccc(C(C)=O)cc1COC(=O)c1ccc2ccccc2n1,IC50,cells,10.4 µM (active)
Cc1ccc([N+](=O)[O-])cc1NC(=O)CCCOc1ccccc1,IC50,Fatty acid synthase [2],10.1 µM (active)
same,IC50,Fatty acid synthase [3],27.3 µM (inactive)
Cc1ccc(NCCC(=O)c2cccs2)cc1Cl,IC50,cells,28.8 µM (active)
CCn1c(=O)c(C(=O)Nc2ncccc2C)c(O)c2ccccc21,EC50,[4],> 150 µM (inconclusive)
same,IC50,cells,45.2 µM (active)
same,EC50,[5],0.119 µM (active)
CC(=O)c1ccc(N(C(=O)c2ccco2)C(C(=O)NC2CCCC2)c2ccc(N3CCOCC3)cc2)cc1 (stereo not drawn),IC50,Fatty acid synthase [2],15.5 µM (active)
same,IC50,Fatty acid synthase [3],12.5 µM (active)
COC/C=C/C1=CC2=CC(=O)C(C)(OC(=O)c3cnc4ccccc4n3)C(=O)C2=CN1CCOC (stereo not drawn),IC50,[6],13.1 µM (active)
same,IC50,[7],11.5 µM (active)
Cc1ccc(Nc2nc3ccccc3s2)c(C)c1,AC50,[8],16.1 µM (active)
same,AC50,[9],14.3 µM (active)
same,AC50,[10],37.8 µM (active)
same,AC50,[11],> 52 µM (inactive)
O=C(c1cccc(S(=O)(=O)N2CCCC2)c1)c1cccc(S(=O)(=O)N2CCCC2)c1,IC50,Fatty acid synthase [2],12.1 µM (active)
same,IC50,Fatty acid synthase [3],6.54 µM (active)
CC(C)(C)OC(=O)N1Cc2ccccc2C[C@H]1C(=O)O,IC50,[6],> 100 µM (inactive)
same,IC50,[7],12.8 µM (active)
O=[N+]([O-])c1ccc(CN2CC(N3CCC(Cc4ccccc4)CC3)CS2(=O)=O)cc1 (stereo not drawn),IC50,Fatty acid synthase [2],9.92 µM (active)
same,IC50,Fatty acid synthase [3],6.24 µM (active)
CN(C)CCNCCN,AC50,Cytochrome P450 2C19,inconclusive
same,AC50,Cytochrome P450 2C9,inconclusive
O=C(COc1ccccc1[N+](=O)[O-])Nc1cccc(S(=O)(=O)NC2=NCCCCC2)c1,IC50,[1],9 µM (active)
O=S(=O)(Nc1ccc2c(c1)OCCO2)c1cccc2cccnc12,AC50,Cytochrome P450 2C9,inconclusive
same,AC50,Cytochrome P450 1A2,5.01 µM (inconclusive)
same,AC50,Cytochrome P450 2D6,39.8 µM (inconclusive)
CCOC(=O)c1c(N)sc(C(O)(C(F)(F)F)C(F)(F)F)c1-c1ccc(F)cc1,IC50,[12],4.92 µM (active)
CC(C)(C)C1=CC(O)(c2ccccc2)C=C(C(C)(C)C)C1=O,IC50,[12],18.7 µM (inactive)
CCOc1ccc(N2C(=O)C3C4C=CC(CC4)C3C2=O)c([N+](=O)[O-])c1 (stereo not drawn),AC50,Cytochrome P450 3A4,20 µM (inconclusive)
same,AC50,Cytochrome P450 2C9,inconclusive
same,AC50,Cytochrome P450 1A2,25.1 µM (inconclusive)
C=CCN1C(=O)/C(=C2/Sc3ccccc3N2CCCS(=O)(=O)O)SC1=S.c1ccncc1,IC50,[13],> 66 µM (inactive)
same,IC50,[1],5.11 µM (active)
same,IC50,[14],> 66 µM (inactive)
Cc1ccc2[nH]c(CCc3nc4cc(C)ccc4[nH]3)nc2c1,IC50,cells,35.3 µM (active)
COc1ccc(N2C(=O)Cc3ccccc3C2=O)cc1,IC50,[6],> 100 µM (inactive)
same,IC50,[7],5.08 µM (active)
C[C@H]1CN([C@@H](C)CO)C(=O)Cc2cc(NC(=O)C3CCCCC3)ccc2O[C@H]1CN(C)S(=O)(=O)c1ccc(Cl)cc1,AC50,[15],22.6 µM (active)
same,AC50,[16],8.97 µM (active)
same,AC50,[17],6.75 µM (active)
Cc1ccccc1S(=O)(=O)N(C)C[C@@H]1OCc2ccccc2-c2c(n(C)c3ccccc23)C(=O)N([C@@H](C)CO)C[C@@H]1C,AC50,[18],0.812 µM (active)
same,AC50,[19],1.63 µM (active)
same,AC50,[20],0.659 µM (active)
same,AC50,[21],1.02 µM (active)
COc1cccc(C2CC(=O)Nc3cc4c(cc32)CCC4)c1 (stereo not drawn),IC50,[22],> 80 µM (inactive)
Nc1cc(=O)nc(SCC(=O)Nc2cccc3ccccc23)n1CCc1ccccc1,AC50,Cytochrome P450 2C9,inconclusive
same,AC50,Cytochrome P450 1A2,17.8 µM (inconclusive)
COc1ccc(NC(=O)NNc2cc(N3CCOCC3)nc(N3CCOCC3)n2)cc1,IC50,[6],7.36 µM (active)
same,IC50,[7],9.34 µM (active)
COc1ccc(/C=C2\SC(=S)N(CCC(=O)Nc3cccc(C(=O)O)c3)C2=O)cc1,IC50,[1],6.38 µM (active)
C=C1C(=O)O[C@@H]2OC3(C)CCC4C(C)CCC1C42OO3 (stereo partly drawn),GI50,SN12K1,3.66 µM (inactive)
same,GI50,P388/ADR,0.294 µM (active)
COC(=O)C1=C(C)N(Cc2ccccc2)C(NCc2ccc(OC)cc2)=N[C@H]1c1cccc(F)c1,IC50,[23],> 20 µM (inactive)
same,IC50,[12],1.46 µM (active)
CCCC(=O)NNC(=O)CCC(=O)NCc1ccccc1,AC50,Cytochrome P450 3A4,0.0562 µM (inconclusive)
same,AC50,Cytochrome P450 2C19; read-out: AC50,39.8 µM (inconclusive)
same,AC50,Cytochrome P450 2C9,inconclusive
COc1ccc(NC(=O)Nc2ccc3c(c2)C(=O)N([C@@H](C)CO)C[C@H](C)[C@H](CN(C)S(=O)(=O)c2ccc(Cl)cc2)O3)cc1,AC50,[15],5.38 µM (active)
same,AC50,[16],5.71 µM (active)
same,AC50,[17],4.73 µM (active)
COc1cc(=O)n(C)c2c(O)cccc12,IC50,[6],> 100 µM (inactive)
same,IC50,[7],11.5 µM (active)
CCc1ccc(NS(=O)(=O)c2cc3c(cc2C)n(C)c(=O)c(=O)n3C)cc1,IC50,Fatty acid synthase [2],2.42 µM (active)
same,IC50,Fatty acid synthase [3],2.83 µM (active)
same,IC50,[12],3.39 µM (active)
CCCNC(=O)c1cc2c(c(-c3cccc(-c4cc5ccccc5o4)c3)n1)[C@H](CCO)N(C(=O)NC(C)C)C2,AC50,[18],2.39 µM (active)
same,AC50,[19],1.87 µM (active)
same,AC50,[20],1.75 µM (active)
same,AC50,[21],2.97 µM (active)
